Values quoted from earlier work as cited in patent US20070161542A1, “Ptb1b photoprobes” (priority 2003, published 2007).
Non-standard residues stand in square brackets, D forms with d. Residues, ends and D or L forms follow the SMILES beside them. *: point of attachment. F2Pmp = N[C@@H](Cc1ccc(C(F)(F)P(=O)(O)O)cc1)C(=O)O; Bz = O=C(c1ccccc1)*

Tested on: PTP1B and TCPTP1B
Settings: reference (23); cited from earlier work

For `NC(=O)[C@H](Cc1ccc(C(F)(F)P(=O)(O)O)cc1)NC(=O)[C@H](Cc1ccc(C(F)(F)P(=O)(O)O)cc1)NC(=O)[C@H](CCC(=O)O)NC(=O)c1ccccc1` [BzN-EJJ-AMIDE, N-benzoyl-L-glutamyl-[4-phosphono(difluoromethyl)]-L-phenylalanyl-[4-phosphono(difluoromethyl)]-L-phenylanalininamide] (Bz-Glu-[F2Pmp]-[F2Pmp]-NH2), the inhibitor character is given as “selective, potent inhibitor”.
